Legend:
A2780-S cell line = assay: Growth inhibition assay (modified MTT); type: cell-based, human; conditions: five-day MTT
Description: (§1) The sensitivities of the cell lines to cisplatinum, carboplatinum, and compounds A-F were determined using a growth inhibition assay which was a modified version of the MTT method (modified version of MTT method described in Appendix B).
(§2) The following is a brief description of the eleven different cell lines used in the growth inhibition assay: • The A2780 cell line (1 in FIGS. 1-9) is a human ovarian cell line which is sensitive to cisplatinum and carboplatinum. […] The cor123/cpr (7) cell line is a modified version of the cor123 cell line which has been modified to be resistant to cisplatinum and carboplatinum. • The ccu24 (8) cell line is an epithelial ovarian cancer cell line, developed at the Christie Hospital from a tumour biopsy, and the ccu24/cpr (9) cell line is a modified version of this cell line which is cisplatinum and carboplatinum resistant. • L1210 (10) is a murine leukemia cell line and L1210/M1140 (11) is its platinum drug resistant subline.
(§3) The cell toxicity studies were performed using a modification of the method MTT.^7 The principle of the assay is to assess the growth inhibitory effect of a drug at various doses over a five-day time course. This assay was performed in 96-well microtitre plates. Cells were seeded at densities of 400-1,000 cells per well, depending on the doubling time of the cell line. All cell dilutions were performed in growth medium containing 10% FCS (foetal calf serum).
(§4) Compounds under investigation were dissolved in DMSO (dimethylsulphoxide). Serial dilutions of compound were made into the cell suspension, ensuring that the proportion of DMSO remained below 0.5%. 200 μl of cells and drug mix was added to the 96-well plates in triplicate. The plates were incubated for five days at 5% CO2 and 37° C. After this time, the plates were removed from the incubator and 50 μl of a 3 mg/ml solution of MTT [3-(4,5-dimethyl-thiazol-2-yl)-2,5-diphenyl tetrazolium bromide] was added to each well and incubated in the same conditions for another 3 hours. The medium from each well was aspirated and the formazan crystals were solubilised in 200 μl of DMSO. The plates were read using a Multiskan platereader at 540 nm and 690 nm. Growth inhibition curves were constructed using mean and standard deviation of the triplicate absorbance values and from these curves the IC50 values were calculated.

A2780carb cell line = assay: Growth inhibition assay (modified MTT); type: cell-based, human; conditions: for IC50: A2780carb, five-day MTT
Description: as §1, §2, §3, §4

A2780cis cell line = assay: Growth inhibition assay (modified MTT); type: cell-based, human; conditions: for IC50: A2780cis, five-day MTT
Description: as §1, §2, §3, §4

ccu24 cell line = assay: Growth inhibition assay (modified MTT); type: cell-based, human; conditions: five-day MTT
Description: as §1, §2, §3, §4

ccu24/cpr cell line = assay: Growth inhibition assay (modified MTT); type: cell-based, human; conditions: five-day MTT
Description: as §1, §2, §3, §4

cor123 cell line = assay: Growth inhibition assay (modified MTT); type: cell-based, human; conditions: five-day MTT
Description: as §1, §2, §3, §4

cor123/cpr cell line = assay: Growth inhibition assay (modified MTT); type: cell-based, human; conditions: five-day MTT
Description: as §1, §2, §3, §4

mcp1 cell line = assay: Growth inhibition assay (modified MTT); type: cell-based, human; conditions: five-day MTT
Description: as §1, §2, §3, §4

mcp8 cell line = assay: Growth inhibition assay (modified MTT); type: cell-based, human; conditions: five-day MTT
Description: as §1, §2, §3, §4

L1210 cell line = assay: Growth inhibition assay (modified MTT); type: cell-based, murine; conditions: five-day MTT
Description: as §1, §2, §3, §4

L1210/M1140 cell line = assay: Growth inhibition assay (modified MTT); type: cell-based, murine; conditions: five-day MTT
Description: as §1, §2, §3, §4

A2780/mcp8 = assay: Comet assay, DNA crosslinking; type: cell-based, human; conditions: ratio >1 = more cross-linking in parental than in platinum-resistant line
Description: (§5) Preliminary studies have been carried out to investigate the mechanism underlying this increased sensitivity. These studies were carried out using the Comet assay (described in Appendix C), which measures damage to DNA. The results are shown in FIGS. 1 (cisplatinum), 2 (carboplatinum), 3 to 8 (compounds A-F) and 9 (phenylgoldtriphenylphospine, PAuP).
(§6) Table 3 illustrates the results of the following calculation using the DNA cross-linking results obtained in the Comet assays:
(§7) DNA damage was measured by the single cell gel electrophoresis (SCGE) assay or “Comet assay”, originally developed by Ostling and Johnson^8. This is a method for determining the extent of DNA damage and repair capacity within individual cells.^9-11 It has previously been shown that this technique can be used to investigate the mechanism of action of different DNA damaging agents.^12
(§8) Cells were trypsinised, suspended in 0.5 ml of ice cold fresh medium and transferred into plastic 24-well dishes prior to embedding in agarose. For the cross-linking studies treated and control samples were chilled on ice (to prevent any repair of DNA damage) and irradiated to a dose of 20 Gy in a Caesium-137 source (0.4 Gy/min). Control, (unirradiated, non-drug treated cells) were maintained on ice in the same manner as treated samples.
(§9) Glass microscope slides, frosted at one end, were pre-coated with 1% normal agarose in distilled water. These slides were allowed to air dry overnight prior to use. A 1% low melting point agarose (LMP) mixture in PBS was melted and held at 45° C. 1 ml of LMP was then added to 0.5 ml of cell suspension on ice and the resultant mixture was pipetted onto a pre-coated glass microscope slide and allowed to set for 1-2 minutes before being transferred to an ice tray. The slides were immersed in ice cold lysis solution (100 mM EDTA, 10 mM Tris-HCl, 1% Triton ×100, 1% DMSO, 2.5M NaCl) for 1 hr, and washed three times by immersion in fresh double distilled water for 15 minutes.
(§10) Slides were then placed onto a flat bed electrophoresis tank and covered (5-6 mm) with alkali unwinding solution (50 mM NaOH, 1 mM EDTA buffered to pH 12.5) and left under subdued lighting for 45 minutes to allow the DNA to unwind before being subjected to electrophoresis at 0.6V/cm for 25 minutes. Each slide was rinsed with 2×1 ml of 0.4M Tris-HCl, pH 8.0 and allowed to dry in air. The dried slides were then rehydrated for 20 minutes with double distilled water, 2×1 ml of propidium iodide solution (2.5 μg/ml) was added and staining was allowed to proceed for 15 minutes. Slides were then immersed in 1 litre of double distilled water for 1 hour to reduce excess background staining. The slides were cover slipped and then examined at 250× magnification under an epifluorescent microscope (Zeiss-Jenamed) using green light from a 50 watt mercury source with a 580 nm reflector and a 590 nm barrier filter set. Images were captured using an attached Sony HAD-1 interline CCD camera and Komet software analysis package (Kinetic Imaging). Twenty-five images from each of two duplicate slides were captured and analysed and the individual “comet moments” as defined by Olive et al^13, were calculated. The total fluorescence of the image represents the amount of DNA present and the length of the image, measured in pixels, represents the length of migration of the DNA. The head and tail areas of the image were identified and the intensity of each was determined. The tail moment is calculated by multiplying the fraction of DNA present in the tail by half the length of the tail.

A2780carb = assay: Comet assay, DNA crosslinking; type: cell-based, human; conditions: ratio >1 = more cross-linking in parental than in platinum-resistant line
Description: as §5, §6, §7, §8, §9, §10

A2780cis = assay: Comet assay, DNA crosslinking; type: cell-based, human; conditions: ratio >1 = more cross-linking in parental than in platinum-resistant line
Description: as §5, §6, §7, §8, §9, §10

A2780mcp1 = assay: Comet assay, DNA crosslinking; type: cell-based, human; conditions: ratio >1 = more cross-linking in parental than in platinum-resistant line
Description: as §5, §6, §7, §8, §9, §10

ccu24 = assay: Comet assay, DNA crosslinking; type: cell-based, human; conditions: ratio >1 = more cross-linking in parental than in platinum-resistant line
Description: as §5, §6, §7, §8, §9, §10

cor123 = assay: Comet assay, DNA crosslinking; type: cell-based, human; conditions: ratio >1 = more cross-linking in parental than in platinum-resistant line
Description: as §5, §6, §7, §8, §9, §10

L1210 = assay: Comet assay, DNA crosslinking; type: cell-based, murine; conditions: ratio >1 = more cross-linking in parental than in platinum-resistant line
Description: as §5, §6, §7, §8, §9, §10

[1] = Table 1, first series of assays
[2] = Table 2, further series of assays
[3] = Table 1, first series of assays, mcp1
[4] = Table 2, further series of assays, A2780/mcp1
[5] = Table 1, first series of assays, mcp8
[6] = Table 2, further series of assays, A2780/mcp8

Compound	IC50 (A2780-S cell line; [1])	IC50 (A2780-S cell line; [2])	IC50 (A2780carb cell line; [1])	IC50 (A2780carb cell line; [2])	IC50 (A2780cis cell line; [1])	IC50 (A2780cis cell line; [2])	IC50 (ccu24 cell line; [1])	IC50 (ccu24 cell line; [2])	IC50 (ccu24/cpr cell line; [1])	IC50 (ccu24/cpr cell line; [2])	IC50 (cor123 cell line; [1])	IC50 (cor123 cell line; [2])	IC50 (cor123/cpr cell line; [1])	DNA crosslinking (Comet) ratio (A2780/mcp8)	DNA crosslinking (Comet) ratio (A2780carb)	DNA crosslinking (Comet) ratio (A2780cis)	DNA crosslinking (Comet) ratio (A2780mcp1)	DNA crosslinking (Comet) ratio (ccu24)	DNA crosslinking (Comet) ratio (cor123)	DNA crosslinking (Comet) ratio (L1210)	further results
c1ccc([PH]([Au][c]2cc[c]([Au][PH](c3ccccc3)(c3ccccc3)c3ccccc3)cc2)(c2ccccc2)c2ccccc2)cc1 [A, 1,4-bis-(triphenylphospinogold(I))benzene]	13.4 nM	16.5 nM	0.6 nM	0.9 nM	0.2 nM	0.5 nM	25.3 nM	28.3 nM	3.6 nM	6.4 nM	19.3 nM	22.2 nM	1.5 nM	0.60	0.53	0.50	0.59	0.40	0.56	0.69	sensitivity of A2780carb relative to parental A2780-S line (A2780carb cell line; from IC50 0.6 nM vs 13.4 nM): over twenty-times more sensitive; sensitivity of A2780cis relative to parental A2780-S line (A2780cis cell line; from IC50 0.2 nM vs 13.4 nM): over sixty-times more sensitive; IC50 (cor123/cpr cell line; [2]): 4.5 nM; IC50 (mcp1 cell line; [3]): 0.5 nM; IC50 (mcp1 cell line; [4]): 3.5 nM; IC50 (mcp8 cell line; [5]): 0.6 nM; IC50 (mcp8 cell line; [6]): 4.6 nM; IC50 (L1210 cell line; [1]): 38.3 nM; IC50 (L1210 cell line; [2]): 41.6 nM; IC50 (L1210/M1140 cell line; [1]): 6.4 nM; IC50 (L1210/M1140 cell line; [2]): 9.2 nM
[Au][c]1ccc[c]([Au])c1.c1ccc(P(c2ccccc2)c2ccccc2)cc1.c1ccc(P(c2ccccc2)c2ccccc2)cc1 [B]	9.8 nM	12.1 nM	0.4 nM	0.7 nM	0.2 nM	0.6 nM	18.7 nM	21.8 nM	2.1 nM	5.1 nM	12.6 nM	15.8 nM	1.2 nM	0.39	0.37	0.36	0.40	0.39	0.38	0.47	IC50 (cor123/cpr cell line; [2]): 4.3 nM; IC50 (mcp1 cell line; [3]): 0.4 nM; IC50 (mcp1 cell line; [4]): 3.5 nM; IC50 (mcp8 cell line; [5]): 0.4 nM; IC50 (mcp8 cell line; [6]): 5.4 nM; IC50 (L1210 cell line; [1]): 26.6 nM; IC50 (L1210 cell line; [2]): 29.6 nM; IC50 (L1210/M1140 cell line; [1]): 4.1 nM; IC50 (L1210/M1140 cell line; [2]): 7.2 nM
c1ccc([PH]([Au][c]2cccc[c]2[Au][PH](c2ccccc2)(c2ccccc2)c2ccccc2)(c2ccccc2)c2ccccc2)cc1 [Compound C]	12.8 nM	15.2 nM	0.5 nM	0.8 nM	0.3 nM	0.6 nM	20.2 nM	23.2 nM	3.3 nM	6.3 nM	14.4 nM	17.6 nM	1.4 nM	0.41	0.36	0.36	0.38	0.37	0.38	0.71	IC50 (cor123/cpr cell line; [2]): 4.4 nM; IC50 (mcp1 cell line; [3]): 0.5 nM; IC50 (mcp1 cell line; [4]): 3.5 nM; IC50 (mcp8 cell line; [5]): 0.5 nM; IC50 (mcp8 cell line; [6]): 4.6 nM; IC50 (L1210 cell line; [1]): 42.7 nM; IC50 (L1210 cell line; [2]): 45.8 nM; IC50 (L1210/M1140 cell line; [1]): 5.2 nM; IC50 (L1210/M1140 cell line; [2]): 8.4 nM
[Au(η2-C6H4CH═NC6H5)Cl2] [Au (III), reference compound]	–	–	–	–	–	–	–	–	–	–	–	–	–	0.69	0.71	0.67	0.72	0.78	0.83	0.54	–

Reference: US7732485B2, “Treatment of cancer” (The University of Manchester, priority 2003, dated 2010)
